# Results taken from paper PMC3271436 (Osteoarthritis and Cartilage, 2008).
# What was measured:
# Type in all cases: biochemical
# [1] = target: T1, purified IGFBP-5 protease from human osteoarthritic joint fluid (complement 1s) (Homo sapiens, UniProt P09871); test: IGFBP-5 cleavage by protease purified from joint fluid
# T1 sequence (P09871 16-688): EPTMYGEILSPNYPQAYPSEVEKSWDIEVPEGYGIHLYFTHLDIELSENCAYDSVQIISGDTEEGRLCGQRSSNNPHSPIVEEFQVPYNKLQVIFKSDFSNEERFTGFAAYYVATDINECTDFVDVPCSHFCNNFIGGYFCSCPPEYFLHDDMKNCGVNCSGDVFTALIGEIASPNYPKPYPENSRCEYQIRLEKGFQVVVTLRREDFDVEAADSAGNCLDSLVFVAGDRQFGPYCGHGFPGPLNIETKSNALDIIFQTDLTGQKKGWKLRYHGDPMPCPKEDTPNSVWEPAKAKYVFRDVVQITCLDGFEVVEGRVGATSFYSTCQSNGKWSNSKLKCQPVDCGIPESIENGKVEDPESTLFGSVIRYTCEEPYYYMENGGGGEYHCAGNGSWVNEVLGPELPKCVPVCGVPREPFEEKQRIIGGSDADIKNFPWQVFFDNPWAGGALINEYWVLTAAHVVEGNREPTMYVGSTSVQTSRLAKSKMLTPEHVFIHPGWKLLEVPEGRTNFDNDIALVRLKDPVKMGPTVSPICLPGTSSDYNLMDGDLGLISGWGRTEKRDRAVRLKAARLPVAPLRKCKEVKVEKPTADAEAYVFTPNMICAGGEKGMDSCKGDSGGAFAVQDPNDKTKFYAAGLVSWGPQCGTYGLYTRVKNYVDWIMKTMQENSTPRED
# [2] = target: T2, IGFBP-5 protease activity in human osteoarthritic joint fluid (Homo sapiens, UniProt P09871)
# T2 sequence (P09871 16-688): T1 sequence (P09871 16-688)
# [3] = target: T3, purified C1s (Calbiochem) (Homo sapiens, UniProt P09871); test: C1s chromogenic assay with purified commercial C1s, substrate S-2765
# T3 sequence (P09871 16-688): T1 sequence (P09871 16-688)
Structure (SMILES),"Purified Protease IC50 ([1]; protease purified through Con-A step, 118 ng IGFBP-5, 16 h at 37°C)","Human Joint Fluid IC50 ([2]; crude joint fluid, 118 ng IGFBP-5, 16 h at 37°C)",C1s inhibition in words [3],IC50 [3] [nM],IC50 [1] [nM],activity in words against the purified joint fluid preparation ([1]; purified joint fluid preparation),activity in words against IGFBP-5 protease activity in crude joint fluid ([2]; 0.1 to 360 uM)
"c1cnc2c(c1)ccc1cccnc12 [1,10-phenanthroline]",No inhibition,No Inhibition,–,–,–,–,–
N=C(N)c1ccc2cc(OC(=O)c3ccc(N=C(N)N)cc3)ccc2c1 [FUT175],–,–,potent C1s inhibitor,70,1000,most active,most active
